Values quoted from earlier work in patent US20100322881A1, “UVB FILTER BASED ON ASCORBIC ACID DERIVATIVES” (MERCK PATENT GESELLSCHAFT, priority 2008, published 2010).

System: prolyl-4-hydroxylase
Conditions: literature statement; for supporting the activity of the enzyme prolyl-4-hydroxylase: Biochem. J. 1994, 300, 75-79

Structure (SMILES): CC(=O)Oc1ccccc1C(=O)OC[C@H](OC(=O)c1ccccc1OC(C)=O)[C@H]1OC(=O)C(O)=C1O [O^5O^6-bis(2-acetoxybenzoyl) L-ascorbate]
- affinity to the enzyme (compared with the monosubstituted compound): lower affinity
- supporting the activity of the enzyme prolyl-4-hydroxylase: capable of supporting the activity

Structure (SMILES): CC(=O)Oc1ccccc1C(=O)OC[C@H](O)[C@H]1OC(=O)C(O)=C1O [O^6-(2-acetoxybenzoyl) L-ascorbate]
- supporting the activity of the enzyme prolyl-4-hydroxylase: capable of supporting the activity
